≈ marks a conversion by molar mass, not a printed value. Where a SMILES comes first, the peptide text is derived from it. [ ]: non-standard residue; d: D form. The star is where a group is joined. Orn(α-tetramethylguanidino) = CN(C)C(=N[C@@H](CCCN)C(=O)*)N(C)C; Orn = NCCC[C@H](N)C(=O)O
Experiments:
HEK293 cells = system: HEK293 cells; set-up: method as in Berthold et al., 2013; Bluhm et al., 2015; conditions: ref Berthold et al., 2013, Bluhm et al., 2015; cited from earlier work
[1] = system: Escherichia coli ATCC25922; set-up: method as in unpublished data; conditions: mouse infection models with E. coli ATCC25922, doses of only 0.6 mg/kg; ref unpublished data; cited from earlier work
[2] = set-up: method as in unpublished data; conditions: four intraperitoneal injections of 80 mg/kg per day; ref unpublished data; cited from earlier work
[3] = system: P. aeruginosa DSM 3227 (ATCC 19429); type: cell-based, Pseudomonas aeruginosa; conditions: DSM 3227, 24 h
Procedure: (§1) MICs of P. aeruginosa strains DSM 1117 (ATCC 27853), DSM 3227 (ATCC 19429), and DSM 9644 were determined in a microdilution broth assay using 50 or 100% MHB (11.5 and 23 g/L MHB, respectively) whereas MICs of E. coli DSM 1103 (ATCC 25922) and K. pneumoniae DSM 681 (ATCC 10031) were determined in TSB (30 g/L TSB). Peptides (1 g/L in water) were serially two-fold diluted in a 96-well microtiter plate (PS, sterile, flat bottom) in 50 μL of the corresponding medium to final concentrations of 512–4 μg/mL. Bacteria were grown in nutrient broth overnight and diluted to a cell concentration of 1.5 × 10^7 cells/mL in the corresponding medium. Cell densities were determined by using the McFarland standard as reference. An aliquot (50 μL) of the cell culture was added to each well and incubated (37°C, 24 h). The OD595 was determined in a SpectraMax 340PC (Molecular Devices, Sunnyvale, USA). Additionally, MIC values were also determined for high bacteria densities (5 × 10^8 cells/mL) corresponding to the conditions used for TEM, as described above.

HeLa cells = assay: Flow cytometry, cell uptake of Cf-labeled peptides; type: cell-based; conditions: flow cytometry (abstract)
Procedure: HeLa cells (50,000 for endocytosis inhibition and 70,000 for uptake kinetics) suspended in DMEM/F-12 medium (300 μL; see above) were seeded into 48-well plates (PS, sterile, flat bottom) and incubated (23 ± 1 h) using the conditions described above. Cells were washed twice with PBS (300 μL/well) and fresh medium was added (144 μL).
Peptide solutions (6 μL; 1 mmol/L in H2O) were added to achieve a concentration of 40 μmol/L at different time points. Cells were washed three times with PBS (300 μL/well), treated with trypsin (75 μL; 0.05% w/v trypsin, 5 min, 37°C), rinsed off the plate using cold PBS (600 μL/well), and trypsin was removed by two washing steps (400 × g, 4°C, 4 min, 600 μL PBS each). Cells were suspended in PBS (0.1 mL) containing eFluor660 (1000 × diluted in PBS) and incubated on ice in the dark. After 30 min, cells were washed with cold PBS twice, suspended in formaldehyde (100 μL; 2% w/v in PBS), incubated (15 min, RT), washed (200 μL PBS), stored in FACS buffer (200 μL; 3% FBS, 0.1% NaN3 in PBS) overnight, and analyzed on a FACSCalibur (Becton Dickinson, New Jersey, USA). Alternatively, cells were fixed directly without prior eFluor660 staining.

P. aeruginosa DSM 9644 = type: cell-based, Pseudomonas aeruginosa; conditions: DSM 9644, 24 h
Procedure: as §1

human erythrocytes = assay: Hemolysis assay; type: cell-based; conditions: 0.1 g/L peptide, 1 h
Procedure: Human EDTA blood (S-Monovette® with potassium-EDTA Sarstedt AG, Nümbrecht, Germany) was centrifuged (3 min, 300 × g, 4°C) and blood cells were washed three times using the 10-fold volume of cold PBS. The diluted blood cell suspension (2% v/v in PBS, 50 μL) was mixed with a peptide solution (1.2 or 0.2 g/L in PBS, 50 μL) or triton X-100 (1%, v/v in PBS; control) in 96-well plates (PP, V-bottom). After incubation under constant shaking (1 h, 37°C, 300 rpm, Eppendorf Thermomixer) the suspension was centrifuged (3 min, 4°C, 1000 × g) and the OD405 of the supernatant was measured in a 384-well plate (PS, flat bottom, Paradigm microplate reader, Molecular Devices, Sunnyvale, USA). The hemolytic grade (HG) was calculated as [(ODPeptide−ODPBS)/(ODTriton−ODPBS)] × 100%.

## CC[C@H](C)[C@H](NC(=O)[C@H](Cc1ccc(O)cc1)NC(=O)[C@@H](NC(=O)[C@@H]1CCCN1C(=O)[C@H](CCCNC(=N)N)NC(=O)[C@H](CC(N)=O)NC(=O)[C@H](CC(N)=O)NC(=O)[C@H](CCCN)N=C(N(C)C)N(C)C)C(C)C)C(=O)N1CCC[C@H]1C(=O)N[C@@H](CCCNC(=N)N)C(=O)N1CCC[C@H]1C(=O)N[C@@H](CCCNC(=N)N)C(=O)N1CCC[C@H]1C(=O)N1CCC[C@H]1C(=O)N[C@@H](Cc1c[nH]cn1)C(=O)N1CCC[C@H]1C(=O)N[C@@H](CCCNC(=N)N)C(=O)N[C@@H](CC(C)C)C(=O)O [Api137, gu-ONNRPVYIPRPRPPHPRL-OH, reference compound] ({Orn(α-tetramethylguanidino)}-NNRPVYIPRPRPPHPRL-OH)
HEK293 cells
  IC50 on cell viability: >600 µg/mL
[1]
  survival rate: 100%
[2]
  in vivo tolerance, acute toxic effects: no acute toxic effects
[3]
  MIC P. aeruginosa DSM 3227: >256 µg/mL

## CC(C)C[C@H](NC(=O)[C@H](CCCNC(=N)N)NC(=O)[C@@H]1CCCN1C(=O)[C@H](Cc1c[nH]cn1)NC(=O)[C@@H]1CCCN1C(=O)[C@@H]1CCCN1C(=O)[C@H](CCCNC(=N)N)NC(=O)[C@@H]1CCCN1C(=O)[C@H](CCCNC(=N)N)NC(=O)[C@@H]1CCCN1C(=O)[C@H](CCCN)NC(=O)[C@H](Cc1ccc(O)cc1)NC(=O)[C@@H](NC(=O)[C@@H]1CCCN1C(=O)[C@H](CCCNC(=N)N)NC(=O)[C@H](CCCN)NC(=O)[C@H](Cc1c[nH]c2ccccc12)NC(=O)[C@H](CCCN)NC(=O)[C@H](Cc1c[nH]c2ccccc12)NC(=O)[C@H](CCCN)NC(=O)[C@H](Cc1c[nH]c2ccccc12)NC(=O)[C@H](CCCN)N=C(N(C)C)N(C)C)C(C)C)C(=O)O [Api794, gu-O(WO)3RPVYOPRPRPPHPRL-OH] ({Orn(α-tetramethylguanidino)}-W[Orn]W[Orn]W[Orn]RPVY[Orn]PRPRPPHPRL-OH)
HeLa cells
  higher uptake compared with Api795: 50%
P. aeruginosa DSM 9644
  MIC P. aeruginosa DSM 9644: 16 µg/mL (≈ 5.4 µM)
Human erythrocytes
  Hemolytic grade: 1.7 ± 0.2%
